Source: the supplement of paper PMC11451515

System: SEM cells
Experiment: cell viability relative to DMSO control; higher = less cytotoxic
Conditions: 48 h
Outline: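 Viability, reported as a per-plate percentage of DMSO wells with cell-free wells as background, came from CellTiter-Glo One luminescence. Reading took place after 48 h at 37°C. Before that, NOMO1 or SEM (500 cells/well) or P12-Ichikawa (1000 cells/well) leukemia cells, adapted for at least four passages in each medium, were seeded in 1536-well plates (5 μl) and pin-dosed with library compounds in DMSO, 47 μM to 0.79 nM over 11 threefold points.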

[1] = HPLM + 10% dialyzed FBS, 0.000781 µM
[2] = HPLM + 10% dialyzed FBS, 0.00234 µM
[3] = HPLM + 10% dialyzed FBS, 0.00702 µM
[4] = HPLM + 10% dialyzed FBS, 0.0211 µM
[5] = HPLM + 10% dialyzed FBS, 0.0632 µM
[6] = HPLM + 10% dialyzed FBS, 0.19 µM
[7] = HPLM + 10% dialyzed FBS, 0.569 µM
[8] = HPLM + 10% dialyzed FBS, 1.71 µM
[9] = HPLM + 10% dialyzed FBS, 5.12 µM
[10] = HPLM + 10% dialyzed FBS, 15.4 µM
[11] = HPLM + 10% dialyzed FBS, 46.1 µM
[12] = RPMI 5 mM glucose + 10% FBS, 0.000781 µM
[13] = RPMI 5 mM glucose + 10% FBS, 0.00234 µM
[14] = RPMI 5 mM glucose + 10% FBS, 0.00702 µM
[15] = RPMI 5 mM glucose + 10% FBS, 0.0211 µM
[16] = RPMI 5 mM glucose + 10% FBS, 0.0632 µM
[17] = RPMI 5 mM glucose + 10% FBS, 0.19 µM
[18] = RPMI 5 mM glucose + 10% FBS, 0.569 µM
[19] = RPMI 5 mM glucose + 10% FBS, 1.71 µM
[20] = RPMI 5 mM glucose + 10% FBS, 5.12 µM
[21] = RPMI 5 mM glucose + 10% FBS, 15.4 µM
[22] = RPMI 5 mM glucose + 10% FBS, 46.1 µM
[23] = RPMI 5 mM glucose + 10% dialyzed FBS, 0.000781 µM
[24] = RPMI 5 mM glucose + 10% dialyzed FBS, 0.00234 µM
[25] = RPMI 5 mM glucose + 10% dialyzed FBS, 0.00702 µM
[26] = RPMI 5 mM glucose + 10% dialyzed FBS, 0.0211 µM
[27] = RPMI 5 mM glucose + 10% dialyzed FBS, 0.0632 µM
[28] = RPMI 5 mM glucose + 10% dialyzed FBS, 0.19 µM
[29] = RPMI 5 mM glucose + 10% dialyzed FBS, 0.569 µM
[30] = RPMI 5 mM glucose + 10% dialyzed FBS, 1.71 µM
[31] = RPMI 5 mM glucose + 10% dialyzed FBS, 5.12 µM
[32] = RPMI 5 mM glucose + 10% dialyzed FBS, 15.4 µM
[33] = RPMI 5 mM glucose + 10% dialyzed FBS, 46.1 µM

SMILES	cell viability [1] [%]	cell viability [2] [%]	cell viability [3] [%]	cell viability [4] [%]	cell viability [5] [%]	cell viability [6] [%]	cell viability [7] [%]	cell viability [8] [%]	cell viability [9] [%]	cell viability [10] [%]	cell viability [11] [%]	cell viability [12] [%]	cell viability [13] [%]	cell viability [14] [%]	cell viability [15] [%]	cell viability [16] [%]	cell viability [17] [%]	cell viability [18] [%]	cell viability [19] [%]	cell viability [20] [%]	cell viability [21] [%]	cell viability [22] [%]	cell viability [23] [%]	cell viability [24] [%]	cell viability [25] [%]	cell viability [26] [%]	cell viability [27] [%]	cell viability [28] [%]	cell viability [29] [%]	cell viability [30] [%]	cell viability [31] [%]	cell viability [32] [%]	cell viability [33] [%]
CNC1CCC(N(Cc2cccc(-c3ccncc3)c2)C(=O)c2sc3ccccc3c2Cl)CC1 (configuration not stated)	86.2	93.2	104	90.6	87.9	105	95.5	25.6	4.92	3.48	2.45	90.1	83.7	100	114	88.5	97.4	18.2	6.65	5.64	3.32	1.88	76.6	82.9	95.5	98.5	77.7	99.1	81.6	6.38	5.65	3.68	2.48
OC[C@H]1O[C@@H](O[C@@H]2[C@@H](CO)O[C@](O)(CO)[C@H]2O)[C@H](O)[C@@H](O)[C@H]1O	103	96.4	105	110	113	100	109	108	105	63.5	93.7	102	85	108	112	94.1	97.2	102	96.2	93.3	68.9	95.8	95.6	82.5	102	116	101	105	94.6	106	82.8	72.2	96.4
NC1(Cc2ccc(Cl)cc2)CCN(c2ncnc3[nH]ccc23)CC1	103	106	96	100	92.8	91.6	95.7	75.7	66.9	6.62	2.55	107	117	118	116	112	106	86.1	79.6	59.8	4.37	2.8	106	98.6	99.7	92.7	81.8	83.7	82.9	74.5	54.7	6.24	2.65
COC1CCC(CC1)N(C(=O)C2CCC(C)CC2)C3=C(SC(=C3)\C4=C\CCCC4)C(O)=O (configuration not stated)	111	120	119	117	113	117	104	115	112	84.9	72.1	114	111	124	128	144	134	122	121	121	82.2	73.5	116	114	112	128	138	108	120	137	104	75.3	68
